Test results taken from patent publication US5399711A, “Thiomarinol compounds” (Sankyo Company, Limited, priority 1992, dated 1995).
≈ marks a conversion by molar mass, not a printed value.

Legend:
[1] = tested on: gram-positive and gram-negative bacteria; assay: Antibacterial activity, overall comparison; format: cell-based; conditions: for antibacterial activity compared with pseudomonic acid A: general statement
Protocol: (§1) The minimum inhibitory concentration (MIC) of thiomarinol, thiomarinol B, thiomarinol C and pseudomonic acid A (identified as "A", "B", "C" and "P", respectively) given as μg/ml, against gram-positive and gram-negative bacteria was determined by the agar medium dilution method, using a nutrient agar medium (Product of Eiken Chemical Co., Ltd.).

[2] = tested on: Mycoplasma hyosynoviae S-16; assay: Antimycoplasmal MIC (Test Example 2); format: cell-based; conditions: S16, 120 h, Mucin PPLO agar medium, 15% horse serum, 0.005 ml of 10^5 CFU/ml, 37° C., 5 days
Protocol: Following the same procedure as for Test Example 1, the activity of thiomarinol, thiomarinol B, thiomarinol C and pseudomonic acid A (identified as "A", "B", "C" and "P", respectively) was assayed against various species of mycoplasma. Inoculum: 0.005 ml of 10^5 CFU/ml Thiomarinol B, Thiomarinol C and Pseudomonic acid A were all assayed on Chanock medium [prepared as described in P.N.A.S., 48, 41-49 (1962) and supplemented with 20% horse serum] for all microorganisms; Thiomarinol was assayed on the following media: M. hyosynoviae: Mucin PPLO* agar medium (15% horse serum supplemented) |*PPLO ( -- Pleuro -- Pneumonia- -- Like -- Organism) |PPLO Broth without CV (Difco) | 21 g |Mucin bacteriological (Difco) | 5 g |Distilled water 800 ml |Agar Noble (Difco) 12 g |Equine serum 150 ml |25% Fresh yeast extract | 50 ml Culture conditions: 37° C., 5 days, slightly aerobic (BBL gas pack method [cultivation in disposable CO2 generator from Becton Dickinson Microbiology Systems, Cockeysville, Md. 2103 U.S.A.])

[3] = tested on: Escherichia coli NIHJ; assay: MIC, agar medium dilution method (Test Example 1); format: cell-based; conditions: nutrient agar
Protocol: as §1

[4] = tested on: Klebsiella pneumoniae 806; assay: MIC, agar medium dilution method (Test Example 1); format: cell-based; conditions: nutrient agar
Protocol: as §1

[5] = tested on: Morcranella morganii 1510; assay: MIC, agar medium dilution method (Test Example 1); format: cell-based; conditions: nutrient agar
Protocol: as §1

[6] = tested on: Serratia marcescens 1184; assay: MIC, agar medium dilution method (Test Example 1); format: cell-based; conditions: nutrient agar
Protocol: as §1

[7] = tested on: Staphylococcus aureus 209P; assay: MIC, agar medium dilution method (Test Example 1); format: cell-based; conditions: nutrient agar
Protocol: as §1

[8] = tested on: Salmonella enteritidis; assay: MIC, agar medium dilution method (Test Example 1); format: cell-based; conditions: Salmonella enterica, nutrient agar
Protocol: as §1

[9] = tested on: Staphylococcus aureus 56R; assay: MIC, agar medium dilution method (Test Example 1); format: cell-based; conditions: nutrient agar
Protocol: as §1

[10] = tested on: Escherichia coli 609; assay: MIC, agar medium dilution method (Test Example 1); format: cell-based; conditions: nutrient agar
Protocol: as §1

[11] = tested on: Enterobacter cloacae 963; assay: MIC, agar medium dilution method (Test Example 1); format: cell-based; conditions: nutrient agar
Protocol: as §1

[12] = tested on: Klebsiella pneumoniae 846 (R); assay: MIC, agar medium dilution method (Test Example 1); format: cell-based; conditions: nutrient agar
Protocol: as §1

[13] = tested on: Pseudomonas aerucrinosa 1001; assay: MIC, agar medium dilution method (Test Example 1); format: cell-based; conditions: nutrient agar
Protocol: as §1

[14] = tested on: Pseudomonas aerucrinosa No. 7; assay: MIC, agar medium dilution method (Test Example 1); format: cell-based; conditions: nutrient agar
Protocol: as §1

[15] = tested on: Proteus vulgaris 1420; assay: MIC, agar medium dilution method (Test Example 1); format: cell-based; conditions: nutrient agar
Protocol: as §1

[16] = tested on: Staphylococcus aureus 535 (MRSA); assay: MIC, agar medium dilution method (Test Example 1); format: cell-based; conditions: nutrient agar
Protocol: as §1

[17] = tested on: Enterococcus faecalis 681; assay: MIC, agar medium dilution method (Test Example 1); format: cell-based; conditions: nutrient agar
Protocol: as §1

[18] = Solubility; format: physicochemical; conditions: for solubility (insoluble in): hexane and water; for solubility (soluble in): organic solvents
[19] = tested on: bacteria; conditions: compared with the thiomarinol derivatives or with pseudomonic acid; cited from earlier work
[20] = tested on: tumor; conditions: Japanese Patent Kokai Application Number Sho 63-27484; cited from earlier work
[21] = tested on: mycoplasma; assay: Anti-mycoplasmal activity, overall comparison; format: cell-based; conditions: compared with thiomarinol and pseudomonic acid A; Table 2
Protocol: Following the same procedure as for Test Example 1, the activity of thiomarinol, thiomarinol B, thiomarinol C and pseudomonic acid A (identified as "A", "B", "C" and "P", respectively) was assayed against various species of mycoplasma.

[22] = tested on: Mycoplasma hyorhinis BTS 7; assay: Antimycoplasmal MIC (Test Example 2); format: cell-based; conditions: BTS7, 120 h, Chanock medium, 20% horse serum, 0.005 ml of 10^5 CFU/ml, 37° C., 5 days
Protocol: Following the same procedure as for Test Example 1, the activity of thiomarinol, thiomarinol B, thiomarinol C and pseudomonic acid A (identified as "A", "B", "C" and "P", respectively) was assayed against various species of mycoplasma. Inoculum: 0.005 ml of 10^5 CFU/ml Thiomarinol B, Thiomarinol C and Pseudomonic acid A were all assayed on Chanock medium [prepared as described in P.N.A.S., 48, 41-49 (1962) and supplemented with 20% horse serum] for all microorganisms; Culture conditions: 37° C., 5 days, slightly aerobic (BBL gas pack method [cultivation in disposable CO2 generator from Becton Dickinson Microbiology Systems, Cockeysville, Md. 2103 U.S.A.])

[23] = tested on: Pseudomonas aeruginosa 3719; assay: MIC, agar medium dilution method (Test Example 1); format: cell-based; conditions: nutrient agar
Protocol: as §1

What does the source list for `C/C(=C\C(=O)OCCCCCCCC(=O)Nc1c2sscc-2[nH]c1=O)C(O)C1OCC(C/C=C/C(C)C(C)O)C(O)C1O` (stereo not drawn) [thiomarinol]?
antibacterial activity compared with pseudomonic acid A [1]: significantly more potent antibacterial activity than does pseudomonic acid A; MIC [2]: 0.025 µg/mL (≈ 0.039 µM); MIC [3]: 0.8 µg/mL (≈ 1.25 µM); MIC [4]: 0.8 µg/mL (≈ 1.25 µM); MIC [5]: 6.2 µg/mL (≈ 9.68 µM); MIC [6]: 3.1 µg/mL (≈ 4.84 µM); MIC [7]: ≤ 0.01 µg/mL; MIC [8]: 0.4 µg/mL (≈ 0.624 µM); MIC [9]: ≤ 0.01 µg/mL; MIC [10]: 0.8 µg/mL (≈ 1.25 µM); MIC [11]: 1.5 µg/mL (≈ 2.34 µM); MIC [12]: 0.2 µg/mL (≈ 0.312 µM); MIC [13]: 0.2 µg/mL (≈ 0.312 µM); MIC [14]: 0.4 µg/mL (≈ 0.624 µM); MIC [15]: 0.05 µg/mL (≈ 0.078 µM); MIC [16]: ≤ 0.01 µg/mL; MIC [17]: 0.02 µg/mL (≈ 0.0312 µM); solubility (insoluble in) [18]: insoluble in hexane and water; solubility (soluble in) [18]: Soluble in alcohols such as methanol, ethanol, propanol and butanol; and soluble in dimethyl sulfoxide, dimethylformamide, chloroform, ethyl acetate, acetone and diethyl ether

For `CC(=CC(=O)OCCCCC=CCCC(=O)O)CC1OCC(CC2OC2C(C)C(C)O)C(O)C1O` (stereo not drawn) [pseudomonic acid D], which “antibacterial activity of prior art compounds” value [19] is on record?
Its value is “weaker antibacterial activities than do the thiomarinol derivatives of the present invention”.

Which “antibacterial activity of prior art compounds” value [19] does the source give for `CC(=CC(=O)OCCCCCCCCC(=O)O)CC1OCC(CC=CC(C)C(C)O)C(O)C1O` (stereo not drawn) [pseudomonic acid C] here?
The value was “weaker antibacterial activities than do the thiomarinol derivatives of the present invention”.

For `O=C1CCC(=O)N(O)CCCCCNC(=O)CCC(=O)N(O)CCCCCN1` [bisucaberin], which antitumor activity [20] is on record?
Its antitumor activity is “exhibit antitumor activity”.

With `C/C(=C\C(=O)OCCCCCCCC(=O)Nc1c2sscc-2[nH]c1=O)CC1OCC(C/C=C/C(C)C(C)O)C(O)C1O` (stereo not drawn) [thiomarinol C] as the compound, how does the anti-mycoplasmal activity [21] read?
The anti-mycoplasmal activity was “at least as good as those of thiomarinol and are, in general, significantly better than those of pseudomonic acid A”.

And the antibacterial activity ([1]; compared with thiomarinol and pseudomonic acid A, Table 1)?
Its antibacterial activity is “at least as good as those of thiomarinol and are, in general, significantly better than those of pseudomonic acid A”.

What about the “antibacterial activity compared with pseudomonic acid A” value [1] of the same compound?
The value was “significantly more potent antibacterial activity than does pseudomonic acid A”.

What about the MIC [22] of the same compound?
The MIC was 1.56 µg/mL (≈ 2.5 µM).

What about the MIC [3] of the same compound?
The MIC was 3.1 µg/mL (≈ 4.96 µM).

And the MIC [4]?
The MIC was 1.5 µg/mL (≈ 2.4 µM).

And the MIC [5]?
The MIC was 12.5 µg/mL (≈ 20 µM).

What about the MIC [6] of the same compound?
The MIC was 6.2 µg/mL (≈ 9.92 µM).

And the MIC [7]?
Its MIC is no more than 0.01 µg/mL.

What about the MIC [8] of the same compound?
The MIC was 1.5 µg/mL (≈ 2.4 µM).

What about the MIC [9] of the same compound?
The MIC was no more than 0.01 µg/mL.

What about the MIC [10] of the same compound?
The MIC was 1.5 µg/mL (≈ 2.4 µM).

What about the MIC [23] of the same compound?
Its MIC is 0.4 µg/mL (≈ 0.64 µM).

And the MIC [11]?
Its MIC is 3.1 µg/mL (≈ 4.96 µM).

What about the MIC [12] of the same compound?
Its MIC is 0.8 µg/mL (≈ 1.28 µM).

And the MIC [13]?
The MIC was 0.8 µg/mL (≈ 1.28 µM).

And the MIC [14]?
Its MIC is 0.8 µg/mL (≈ 1.28 µM).

And the MIC [15]?
Its MIC is 0.2 µg/mL (≈ 0.32 µM).

What about the MIC [16] of the same compound?
Its MIC is no more than 0.01 µg/mL.

And the MIC [17]?
Its MIC is 0.8 µg/mL (≈ 1.28 µM).

And the “solubility (insoluble in)” value [18]?
Its value is “Insoluble in hexane and water”.

And the “solubility (soluble in)” value [18]?
Its value is “Soluble in alcohols such as methanol, ethanol, propanol and butanol, as well as in dimethyl sulfoxide, dimethylformamide, chloroform, ethyl acetate, acetone and diethyl ether”.

Which MIC [22] does the source give for `CC(=CC(=O)OCCCCCCCCC(=O)O)CC1OCC(CC2OC2C(C)C(C)O)C(O)C1O` (stereo not drawn) [pseudomonic acid A] here?
The MIC was 0.39 µg/mL (≈ 0.779 µM).

And the MIC [3]?
The MIC was 100 µg/mL (≈ 200 µM).

What about the MIC [4] of the same compound?
The MIC was 100 µg/mL (≈ 200 µM).

What about the MIC [5] of the same compound?
The MIC was greater than 100 µg/mL.

And the MIC [6]?
Its MIC is greater than 100 µg/mL.

What about the MIC [7] of the same compound?
The MIC was 0.05 µg/mL (≈ 0.0999 µM).

And the MIC [8]?
The MIC was 50 µg/mL (≈ 99.9 µM).

What about the MIC [9] of the same compound?
The MIC was 0.1 µg/mL (≈ 0.2 µM).

And the MIC [10]?
The MIC was 100 µg/mL (≈ 200 µM).

And the MIC [23]?
The MIC was greater than 100 µg/mL.

What about the MIC [11] of the same compound?
Its MIC is greater than 100 µg/mL.

What about the MIC [12] of the same compound?
The MIC was 100 µg/mL (≈ 200 µM).

What about the MIC [13] of the same compound?
The MIC was greater than 100 µg/mL.

And the MIC [14]?
The MIC was greater than 100 µg/mL.

What about the MIC [15] of the same compound?
The MIC was 0.4 µg/mL (≈ 0.799 µM).

And the MIC [16]?
Its MIC is 0.2 µg/mL (≈ 0.399 µM).

And the MIC [17]?
Its MIC is 25 µg/mL (≈ 49.9 µM).

What about the “antibacterial activity of prior art compounds” value [19] of the same compound?
The value was “weaker antibacterial activities than do the thiomarinol derivatives of the present invention”.

Which “antibacterial activity of prior art compounds” value [19] does the source give for `C/C(=C\C(=O)OCCCCCCCCC(=O)O)C[C@@H]1OC[C@](O)(C[C@@H]2O[C@H]2[C@@H](C)[C@H](C)O)[C@@H](O)[C@H]1O` [pseudomonic acid B] here?
The value was “weaker antibacterial activities than do the thiomarinol derivatives of the present invention”.
